“Also recorded” adds a separate entry of the source.
Assays:
[1] = tested on: embryonic zebrafish; test: photomotor response; assay type: in vivo; conditions: for effect on PMR latency period / effect on PMR excitation phase (motor response to the first stimulus) / effect on PMR refractory period (response to the second stimulus) / effect on motor activity in the PMR: embryonic zebrafish; for effect on PMR latency period / effect on PMR excitation phase (motor response to the first stimulus) / effect on motor activity in the PMR: light stimulus; for effect on PMR refractory period (response to the second stimulus): second light pulse; for suppression of AzMet behavioral effects (PMR excitation): AzMet co—treated with 2—PAM and atropine
[2] = tested on: embryonic zebrafish; test: embryonic touch response; assay type: in vivo; conditions: touch stimulus
[3] = molecular target: purified AChE (Homo sapiens, UniProt P22303); test: AChE activity assay in vitro; conditions: 10 μM
[4] = molecular target: T1, MAO—B (Homo sapiens, UniProt P27338); conditions: in vitro; warfarin at 10 μM
T1 sequence (P27338 1-520): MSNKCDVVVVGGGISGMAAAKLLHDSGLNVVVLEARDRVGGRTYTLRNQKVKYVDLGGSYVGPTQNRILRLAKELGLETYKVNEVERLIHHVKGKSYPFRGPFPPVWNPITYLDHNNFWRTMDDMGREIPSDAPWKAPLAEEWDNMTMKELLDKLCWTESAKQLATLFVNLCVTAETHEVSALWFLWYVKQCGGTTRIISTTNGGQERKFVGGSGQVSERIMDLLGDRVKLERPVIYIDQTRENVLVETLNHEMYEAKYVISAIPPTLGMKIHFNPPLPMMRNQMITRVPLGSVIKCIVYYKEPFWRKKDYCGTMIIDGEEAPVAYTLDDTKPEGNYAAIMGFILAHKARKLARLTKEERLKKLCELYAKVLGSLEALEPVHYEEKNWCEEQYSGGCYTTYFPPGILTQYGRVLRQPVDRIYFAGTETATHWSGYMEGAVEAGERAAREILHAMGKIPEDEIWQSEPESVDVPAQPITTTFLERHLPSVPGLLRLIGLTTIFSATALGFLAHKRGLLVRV

purified AChE, sequence (P22303 32-614): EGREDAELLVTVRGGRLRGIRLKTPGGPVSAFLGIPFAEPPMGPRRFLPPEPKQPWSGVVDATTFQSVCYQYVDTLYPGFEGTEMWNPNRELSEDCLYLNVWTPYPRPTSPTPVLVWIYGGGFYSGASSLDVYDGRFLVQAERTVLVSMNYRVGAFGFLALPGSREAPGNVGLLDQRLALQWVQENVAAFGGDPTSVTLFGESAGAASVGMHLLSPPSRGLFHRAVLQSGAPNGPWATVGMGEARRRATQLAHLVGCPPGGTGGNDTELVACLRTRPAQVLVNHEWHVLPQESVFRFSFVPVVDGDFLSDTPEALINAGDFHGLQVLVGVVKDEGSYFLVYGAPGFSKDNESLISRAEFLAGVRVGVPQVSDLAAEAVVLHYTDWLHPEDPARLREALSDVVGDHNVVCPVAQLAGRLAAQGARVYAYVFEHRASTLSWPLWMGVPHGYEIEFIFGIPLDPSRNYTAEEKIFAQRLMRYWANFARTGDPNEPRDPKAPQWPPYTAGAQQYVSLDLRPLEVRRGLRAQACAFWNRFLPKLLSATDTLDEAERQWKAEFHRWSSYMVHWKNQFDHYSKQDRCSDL

Compound: Oc1cc2c(cc1O)[C@H]1c3ccccc3CN[C@@H]1CC2 (racemic) [dihydrexidine]
- effect on PMR latency period [1]: prolonged latency period

Compound: O=[N+]([O-])c1ccc2nc(N3CCNCC3)ccc2c1 [6—nitroquipazine]
- effect on PMR excitation phase (motor response to the first stimulus) [1]: exhibited a robust but brief motor response to the first stimulus
- effect on PMR refractory period (response to the second stimulus) [1]: also responded to the second stimulus
- effect on PMR refractory period (response to the second stimulus) ([1]; listed as 6—Nitroquipazine): modulates the PMR refractory period

Compound: CCCN1CCO[C@@H]2c3cc(O)ccc3OC[C@H]21 [PD128907]
- effect on PMR latency period [1]: prolonged latency period

Compound: O=C(CCCN1C(=O)c2ccccc2C1=O)N1CCCCCC1 [STR—1]
- phenotype in the ETR assay [2]: slow—to—relax (STR) phenotype

Compound: O=C1c2ccccc2-c2nc3ncnn3c(-c3ccccc3Cl)c21 [STR—2]
- phenotype in the ETR assay [2]: slow—to—relax (STR) phenotype
- inhibition of purified AChE in vitro [3]: did not inhibit purified AChE in vitro

Compound: CCN1C[C@]2(COC)[C@H](O)C[C@H](OC)[C@@]34[C@@H]5C[C@@]6(O)[C@H](OC(=O)c7ccccc7)[C@@H]5[C@@](OC(C)=O)([C@@H]([C@H](OC)[C@H]23)[C@@H]14)[C@@H](O)[C@@H]6OC [aconitine]
- effect on PMR excitation phase (motor response to the first stimulus) [1]: prolongation of the PMR excitation period

Compound: CN1CCc2cccc3c2[C@H]1Cc1ccc(O)c(O)c1-3 [apomorphine]
- effect on PMR latency period [1]: lengthened the PMR latency period
- effect on PMR latency period ([1]; listed as Apomorphine): increases PMR latency period duration

Compound: CN1[C@@H]2CC[C@H]1C[C@@H](OC(=O)C(CO)c1ccccc1)C2 (stereo partly drawn) [atropine]
- suppression of AzMet behavioral effects (PMR excitation) [1]: counteracted the behavioral effects of AzMet

Compound: COP(=S)(OC)SCn1nnc2ccccc2c1=O [azinphos methyl]
- paralysis in zebrafish ([1]; compared to untreated controls): caused paralysis in zebrafish
- effect on PMR excitation phase (motor response to the first stimulus) [1]: reduced levels of PMR excitation

Compound: CC(C)(C)NCC(O)c1cc(Cl)c(N)c(Cl)c1 (stereo not drawn) [clenbuterol]
- effect on motor activity in the PMR [1]: elevated activity in all PMR phases

Compound: CN1C(=O)CN=C(c2ccccc2)c2cc(Cl)ccc21 [diazepam]
- effect on motor activity in the PMR [1]: decreased activity
- effect on motor activity in the PMR ([1]; listed as Diazepam): reduces motor activity

Compound: C[C@]12CC[C@H](O)C[C@H]1CC[C@@H]1[C@@H]2CC[C@]2(C)[C@@H](C3=CC(=O)OC3)CC[C@]12O [digitoxigenin]
- toxicity in the PMR assay ([1]; concentrations above the active range (Supplementary Fig. 1)): induced toxicities at higher concentrations
- effect on PMR excitation phase (motor response to the first stimulus) [1]: caused a vigorous and prolonged motor response to the stimulus; also recorded: prolongation of the PMR excitation period
- effect on PMR excitation phase (motor response to the first stimulus) ([1]; listed as Digitoxigenin): prolongs duration of the PMR excitation phase

Compound: CC(C)[C@@]1(NC(=O)[C@@H]2C[C@@H]3c4cccc5[nH]cc(c45)C[C@H]3N(C)C2)O[C@@]2(O)[C@@H]3CCCN3C(=O)[C@H](Cc3ccccc3)N2C1=O [dihydroergocristine]
- effect on PMR latency period [1]: prolonged latency period

Compound: CNC[C@H](O)c1ccc(O)c(O)c1 [epinephrine]
- effect on motor activity in the PMR [1]: elevated activity in all PMR phases

Compound: CNC(=O)Oc1ccc2c(c1)[C@]1(C)CCN(C)[C@@H]1N2C [eserine]
- phenotype in the ETR assay [2]: slow—to—relax (STR) phenotype

Compound: CC(C)NCC(O)c1ccc(O)c(O)c1 (stereo not drawn) [isoproterenol]
- effect on motor activity in the PMR [1]: increased motor activity throughout the PMR; also recorded: elevated activity in all PMR phases
- effect on motor activity in the PMR ([1]; listed as Isoproterenol): increases zebrafish motor activity

Compound: C[n+]1ccccc1C=NO [pralidoxime]
- suppression of AzMet behavioral effects (PMR excitation) [1]: counteracted the behavioral effects of AzMet

Compound: C[C@]12CC[C@H]3[C@@H](CC[C@]4(O)C[C@@H](O)CC[C@]34C(=O)O)[C@@]1(O)CC[C@@H]2C1=CC(=O)OC1 [strophanthidinic acid]
- effect on PMR excitation phase (motor response to the first stimulus) [1]: prolongation of the PMR excitation period

Compound: COc1ccc(C(=O)O[C@H]2CC[C@@]3(C)[C@@H]4CC[C@H]5[C@]6(O)C[C@H](O)[C@@]7(O)[C@@H](CN8C[C@@H](C)CC[C@H]8[C@@]7(C)O)[C@]6(O)C[C@@]53O[C@]24O)cc1OC [veratridine]
- effect on PMR excitation phase (motor response to the first stimulus) [1]: prolongation of the PMR excitation period

Compound: CC(=O)CC(c1ccccc1)c1c(O)c2ccccc2oc1=O (stereo not drawn) [warfarin]
- PMR magnitude stimulant (MAG) phenotype ([1]; increased PMR excitation magnitude and duration, warfarin at 10 μM): do not produce a MAG phenotype
- inhibition of MAO activity [4]: nor inhibit MAO activity

From publication PMC2834185 (Nature chemical biology, 2010)
